# From patent publication US20090203877A1, “X-RAY-DENSE CONJUGATE” (Eberhard-Karls-Universitaet Tuebingen Universitaetsklinkum, priority 2006, published 2009)
# Entries after “also recorded” stand apart in the source; their conditions may differ.
# How the values were obtained:
# [1] = tested on: human malignant LN18 glioma cells; assay: Uptake/staining of cells by FITC-labelled conjugates (CLSM, FACS, semi-thin sections); format: cell-based; conditions: 260 μM; for nuclear staining of cells (CLSM), in words: 20 min; for heavily stained cells: FIGS. 8, 13-16; for staining of nucleoli in semi-thin sections (about 0.4 μm): after incubation
# Experimental: (§1) The human malignant U373 and LN18 glioma cells were cultivated in 75 cm^2 culture flasks (Corning Costar) (70% confluency) under the conditions as described under 1.4, detached from the flask bottom with Accutase™ (PAA Laboratories) and in the following distributed on Eppendorf tubes (Eppendorf, Hamburg, Germany) (6×10^6 per tube). The cells in the first tube serve as a control (only PBS buffer only). The cells in the other ten tubes were each incubated with benzoic acid (BA), monoiodobenzoic acid (MIBA) or diiodobenzoic acid (DIBA) alone (260 μM), conjugate 3 alone (260 μM), conjugate 3 plus either BA, MIBA or DIBA (260 μM), respectively, and the conjugates 9, 10, and 11 alone. (260 μM).
# (§2) After an incubation of 20 minutes at 37° C./5% CO2 the cells were washed three times with PBS buffer and centrifuged at 800 rpm (rounds per minute) for 5 minutes. The fluorescence was measured in Becton Dickinson FACSCalibur as described under 1.4. The computer tomography was performed as described under 1.5.1. The examinations were repeated two times. […]
# (§3) The FACS analysis was performed as described under 1.4. The assay was repeated two times.
# (§4) For the CT and FACS examinations human LN18 and U373 glioma cells were cultivated in 75 cm^2 culture flasks (70% confluency) (conditions as described under section 1). Accutase™ (PAA Laboratories) was added to detach the cell from the culture bottom. The cells were collected and then distributed on Eppendorf-tubes (6×10^6 cells per tube). […] The next three tubes were used for the coincubation of the cells either with trichlorobenzoic acid (TCBA), trifluorobenzoic acid (TFBA) or tribromophenyl Isocyanat (TBPI) and the NLS-FITC-conjugate 3 (260 μM). As control cells were used which were only either incubated with CIBA, FIBA, TBPI (in each case 260 μM in PBS) or with PBS-buffer (native control) alone. […] The computer tomography and FACS analysis of the cell centrifuges were performed as described in 1.5.1 or 1.4, respectively for three times.
# All measurements were performed on living cells.
# All measurements were performed on living cells in triplicates.
# A part of the cells which were stained for the FACS analysis, was fixed by paraformaldehyl with 2% Agar, dehydrogenized in ethanol, embedded in Lowicryl K4M (Polysciences, Eppelheim, Germany) and according to the information of the manufacturer UV-polymerised at room temperature. Semi-thin sections (about 0.4 μm) were cut and evaluated by means of fluorescence microscopy.
# [2] = tested on: human malignant U373 glioma cells; assay: Computer tomography, signal density of cell pellets; format: cell-based; conditions: 260 μM, 20 min
# Experimental: (§5) For CT and FACS human U373 glioma cells were grown under the same conditions in 75 cm^2 culture flasks (Corning Costar, Bodenheim, Germany) (70% confluency). Accutase™ (PAA laboratories, Pasching, Austria) was added to achieve detachment of the cells which were harvested and subsequently aliquoted into Eppendorf tubes (6×10^6 cells per tube). As in the investigations performed by fluorescence microscopy, the cells in the first tube served as a control (PBS only). The cells in the other tubes were incubated with 260 μM Ultravist, 260 μM TIBA in PBS and 26 μM, 260 μM and 2.6 mM conjugates 1-4 in PBS. After a 20 minute incubation period at 37° C. in an atmosphere of 5% CO2, the cells were washed three times in PBS and centrifuged at 800 rpm for 5 minutes.
# The inner ear spiral CT protocol consisted of: tube voltage 120 KV, effective mAs 550, time of imaging TI: 1.5, SL 0.75/0.75/4.5, FOV: 50 0/52, kernel: U70, window: intervertebral disc.
# 3D-images were obtained using InSpace Software (Syngo CT 2006G) (Siemens AG, Erlangen, Germany).
# as §2
# An Orbita CT spiral was used: tube voltage 120 KV, effective mAs 550, time of imaging TI: 1.5, SL 0.75/0.75/4.5, FOV: 50 0/52, GT: 0.0, kernel: U70, window: intervertebral disc. 3D images were made with the InSpace Software (Syngo CT 2006G) (Siemens AG, Erlangen, Germany). […]
# [3] = tested on: human malignant U373 glioma cells; assay: Uptake/staining of cells by FITC-labelled conjugates (fluorescence microscopy, CLSM, FACS, semi-thin sections); format: cell-based; conditions: 260 μM
# Experimental: Fluorescence was measured in a Becton Dickinson FACSCalibur. […] The investigations were performed in triplicate.
# as §5
# The FACS analysis was performed as described under 1.4.
# as §1
# After an incubation of 20 minutes at 37° C./5% CO2 the cells were washed three times with PBS buffer and centrifuged at 800 rpm (rounds per minute) for 5 minutes. The fluorescence was measured in Becton Dickinson FACSCalibur as described under 1.4. The computer tomography was performed as described under 1.5.1. The examinations were repeated two times.
# (§6) For the CT and FACS examinations human LN-18 and U373 glioma cells were cultivated in 75 cm^2 culture flasks (Corning Costar) (70% confluency) (conditions as described under 1.4). Accutase™ (PAA Laboratories) was added to detach the cells from the bottom of the culture flasks. The cells were collected and then distributed on Eppendorf tubes (6×10^6 cells per tube). The cells in the first two tubes serve as a control (in each case only PBS, LN18 and U373 glioma cells, native). The cells in the other tubes (in each case LN18 and U373 glioma cells) were incubated with a 260 μM or 2.6 mM solution of the conjugate 12 for 20 minutes at 37° C. and 5% CO2 and in the following washed for three times with PBS buffer and centrifuged for 5 minutes with 800 rpm (rounds per minute). For a small amount of the cells it was tested by the MMT test (see 1.4) how many of the cells were still viable. The computer tomography of the cell centrifuges was performed with the Somatom Sensation 16 (Siemens).
# as §3
# as §4, with “times. […]” for “times.”
# [4] = tested on: human malignant LN18 glioma cells; assay: Computer tomography, signal density of cell centrifugates; format: cell-based; conditions: 260 μM, 20 min
# Experimental: as §6, with “After an incubation of 20 minutes at 37° C./5% CO2 the cells were washed three times with PBS buffer and centrifuged at 800 rpm (rounds per minute) for 5 minutes. The fluorescence was measured in Becton Dickinson FACSCalibur as described under 1.4. The computer tomography was performed as described under 1.5.1. The examinations were repeated two times. For the” for “For the”, “16 (Siemens). An Orbita CT spiral was used: tube voltage 120 KV, effective mAs 550, time of imaging TI: 1.5, SL 0.75/0.75/4.5, FOV: 50 0/52, GT: 0.0, kernel: U70, window: intervertebral disc. 3D images were made with the InSpace Software (Syngo CT 2006G) (Siemens AG, Erlangen, Germany). […] Accutase™ (PAA Laboratories) was added to detach the cell from the culture bottom. The cells were collected and then distributed on Eppendorf-tubes (6×10^6 cells per tube).” for “16 (Siemens).”
# [5] = tested on: human malignant LN18 glioma cells; assay: Cell viability / cell death (annexin-V-Alexa 568 binding, propidium iodide, FACS scatter morphology); format: cell-based; conditions: 260 μM, 20 min, substance alone
# Experimental: All measurements were performed on living, non-fixed cells. […] All measurements were performed on living cells. […] All measurements were performed on living cells in triplicates. […] All measurements were performed on living cells.
# [6] = tested on: human vascular endothelial cells; conditions: traditional contrast media; cited from earlier work
Compound,"cells strongly stained by FITC, FACS histogram [1]","nuclear staining of cells (CLSM), in words [1]",heavily stained cells [1],staining of nucleoli in semi-thin sections (about 0.4 μm) [1],CT signal density of cell pellets [2],"cells strongly stained by FITC, FACS histogram [3]",CT signal density of cell centrifugates [4],"cell death / vitality (annexin-V-Alexa 568, propidium iodide) [5]",concentration at which apoptosis is induced [6],"nuclear staining of cells (CLSM), in words ([1]; listed as K15)","cell death / vitality (annexin-V-Alexa 568, propidium iodide) ([5]; listed as K15)"
"PKKKRKVK(FITC)GGK(TCBA) (PKKKRKVKGGK; FITC, GGK linker, TCBA) [conjugate 14, FITC-labelled NLS with trichlorobenzoic acid]",shift of the histogram peak to the right,almost all nuclei are stained,78%,accumulate in the nucleoli,did not result in an increase of the signal density,shift of the histogram peak to the right,did not result in an increase of the signal density,dead and signs of cell death,–,–,–
"PKKKRKVK(FITC)GGK(TFBA) (PKKKRKVKGGK; FITC, GGK linker, TFBA) [conjugate 13, FITC-labelled NLS with trifluorobenzoic acid]",shift of the histogram peak to the right,stains a large number of cells in the nucleus,78%,accumulate in the nucleoli,did not result in an increase of the signal density,shift of the histogram peak to the right,did not result in an increase of the signal density,no longer vital; also recorded: signs of cell death,–,–,–
CN(C(=O)CC(=O)N(C)c1c(I)c(C(=O)NC(CO)C(O)CO)c(I)c(C(=O)NC(CO)C(O)CO)c1I)c1c(I)c(C(=O)NC(CO)C(O)CO)c(I)c(C(=O)NC(CO)C(O)CO)c1I (stereo not shown) [iotrolan],–,–,–,–,–,–,–,–,250 mg iodine per millilitre,–,–
"PKKKRKVK(FITC)GGK(TBPI) (PKKKRKVKGGK; FITC, GGK linker, TBPI) [conjugate 15, FITC-labelled tribromophenyl isocyanate-NLS-conjugate]",clear increase of the cells which are strongly stained by FITC,–,78%,strongly stained; also recorded: accumulate in the nucleoli,did not result in an increase of the signal density,clear increase of the cells which are strongly stained by FITC,did not result in an increase of the signal density,signs of cell death,–,strong staining of the nucleus in almost all cells; also recorded: nuclei of the LN18 glioma cells accumulate,Alexa-annexin binds to the surface of the cells
"COCC(=O)Nc1c(I)c(C(=O)NCC(O)CO)c(I)c(C(=O)N(C)CC(O)CO)c1I (stereo not shown) [Ultravist, Iopromid, reference compound]",–,–,–,–,only low signal density values; also recorded: did not result in any increase in signal density,–,–,–,250 mg iodine per millilitre,–,–
